Assay [1] deals with T1, Rat DNA polymerase β (Rattus norvegicus, UniProt P06766).
T1 construct: made in house; host or cells: E. coli JMpβ5
In words: DNA polymerase assay, rat pol β. Type of assay: biochemical. Particulars: 10 and 100 μM of compound (Figure 2B). The text has this:
(§1) Pol α was purified from calf thymus by immuno-affinity column chromatography as described by Tamai et al.. Recombinant rat pol β was purified from E. coli JMpβ5 as described by Date et al.. The human pol γ catalytic gene was cloned into pFastBac. Histidine-tagged enzyme was expressed using the BAC-TO-BAC HT Baculovirus Expression System according to the supplier's manual (LIFE TECHNOLOGIES, MD, USA) and purified using ProBoundresin (Invitrogen Japan, Tokyo, Japan). Human pols δ and ε were purified by the nuclear fractionation of human peripheral blood cancer cells (Molt-4) using the second subunit of pols δ and ε-conjugated affinity column chromatography, respectively. Recombinant human pols η and ι tagged with His6 at their C-terminal were expressed in SF9 insect cells using the baculovirus expression system, and were purified as described previously. A truncated form of pol κ (i.e., hDINB1DC) with 6 x His-tags attached at the C-terminal was overproduced using the BAC-to-BAC Baculovirus Expression System kit (GIBCO BRL, MD, USA) and purified as described previously. Recombinant human His-pol λ was overexpressed and purified according to a method described previously. Fish pol δ was purified from the testis of cherry salmon (Oncorhynchus masou). Pol I (α-like) from a higher plant, cauliflower inflorescence, was purified according to the methods outlined by Sakaguchi et al.. The Klenow fragment of pol I from E. coli was purchased from Worthington Biochemical Corp. (Freehold, NJ, USA). Taq pol, T4 pol, T7 RNA polymerase and T4 polynucleotide kinase were purchased from Takara (Kyoto, Japan). Bovine pancreas deoxyribonuclease I (DNase I) was obtained from Stratagene Cloning Systems (La Jolla, CA, USA).
(§2) The reaction mixtures for pol α, pol β, fish pol δ, plant pol I (α-like) and prokaryotic pols were described previously, and those for pol γ, and pols δ and ε were as described by Umeda et al. and Ogawa et al., respectively. The reaction mixtures for pols η, ι and κ were the same as for pol α, and the reaction mixture for pol λ was the same as that for pol β.
For pols, poly(dA)/oligo(dT)12-18 (A/T = 2/1) and dTTP were used as the DNA template-primer and nucleotide (i.e., dNTP) substrate, respectively. KA-A analogues (i.e., compounds 1–12) were dissolved in distilled dimethyl sulfoxide (DMSO) at various concentrations and sonicated for 30 sec. Aliquots of 4 μL of sonicated samples were mixed with 16 μL of each enzyme (final amount 0.05 units) in 50 mM Tris-HCl (pH 7.5) containing 1 mM dithiothreitol, 50% glycerol and 0.1 mM EDTA, and kept at 0 °C for 10 min. These inhibitor-enzyme mixtures (8 μl) were added to 16 μL of each of the enzyme standard reaction mixtures, and incubation was carried out at 37 °C for 60 min, except for Taq pol, which was incubated at 74 °C for 60 min. Activity without the inhibitor was considered 100%, and the remaining activity at each concentration of the inhibitor was determined relative to this value. One unit of pol activity was defined as the amount of enzyme that catalyzed the incorporation of 1 nmol of dNTP (i.e., dTTP) into synthetic DNA template-primers in 60 min at 37 °C under the normal reaction conditions for each enzyme.

Assay [2] concerns the target T2, Calf DNA polymerase α (Bos taurus, UniProt A0AAA9THK8). In words: DNA polymerase assay, calf pol α. Type of assay: biochemical.
Description: as §1, §2
For pols, poly(dA)/oligo(dT)12-18 (A/T = 2/1) and dTTP were used as the DNA template-primer and nucleotide (i.e., dNTP) substrate, respectively. KA-A analogues (i.e., compounds 1–12) were dissolved in distilled dimethyl sulfoxide (DMSO) at various concentrations and sonicated for 30 sec. Aliquots of 4 μL of sonicated samples were mixed with 16 μL of each enzyme (final amount 0.05 units) in 50 mM Tris-HCl (pH 7.5) containing 1 mM dithiothreitol, 50% glycerol and 0.1 mM EDTA, and kept at 0 °C for 10 min. […] Activity without the inhibitor was considered 100%, and the remaining activity at each concentration of the inhibitor was determined relative to this value. […]

The test system of assay [3] is HL-60 cells. Briefly: HL-60 cancer cell growth, MTT assay. Particulars: 50 μM, 24 hr. Type of assay: cell-based, human. The protocol: To investigate the effects of KA-A derivatives in cultured cells, we used a human cancer cell line, HL-60, human promyelocytic leukemia cells (IFO 050022), supplied by the Health Science Research Resources Bank (Osaka, Japan). The cells were routinely cultured in RPMI 1640 medium supplemented with 10% fetal bovine serum, 100 μg/mL streptomycin, 100 unit/mL penicillin, and 1.6 mg/mL NaHCO3. The cells were cultured at 37 °C in standard medium in a humidified atmosphere of 5% CO2-95% air. The rate of the cancer cell growth of the compound was investigated as follows: high concentrations (10 mM) of the compounds were dissolved in DMSO and stocked. Approximately 1 x 10^4 cells per well were inoculated in 96-well micro plates, and then the compound stock solution was diluted to various concentrations, and applied to each well. After incubation for 24 hr, the survival rate was determined by MTT (3-(4,5-dimethylthiazol-2-yl)-2,5-diphenyl tetrazolium bromide) assay.
(In general: Formazan colour is commonly taken as a measure of viable cells.)

Assay [4] has as its target T2, Calf DNA polymerase α. More on the design: method as in PMID 12758147. Particulars: reported previously; read-out: IC50 value, pol α; cited from earlier work.
In assay [5] the target is T1, Rat DNA polymerase β. The arrangement: method as in PMID 12758147. Particulars: reported previously; read-out: IC50 value, pol β; cited from earlier work.
Assay [6] has as its system double-stranded DNA (dsDNA). Briefly: Thermal transition (Tm) of double-stranded DNA. Particulars: compound 11 at 200 μM; data not shown. Format: binding. The protocol: The Tm of dsDNA with an excess amount of compound 11 (200 μM) was measured using a spectrophotometer equipped with a thermoelectric cell holder.

Where two headings read alike, the source gives them in different places.

T2 sequence (Q58D13 whole entry): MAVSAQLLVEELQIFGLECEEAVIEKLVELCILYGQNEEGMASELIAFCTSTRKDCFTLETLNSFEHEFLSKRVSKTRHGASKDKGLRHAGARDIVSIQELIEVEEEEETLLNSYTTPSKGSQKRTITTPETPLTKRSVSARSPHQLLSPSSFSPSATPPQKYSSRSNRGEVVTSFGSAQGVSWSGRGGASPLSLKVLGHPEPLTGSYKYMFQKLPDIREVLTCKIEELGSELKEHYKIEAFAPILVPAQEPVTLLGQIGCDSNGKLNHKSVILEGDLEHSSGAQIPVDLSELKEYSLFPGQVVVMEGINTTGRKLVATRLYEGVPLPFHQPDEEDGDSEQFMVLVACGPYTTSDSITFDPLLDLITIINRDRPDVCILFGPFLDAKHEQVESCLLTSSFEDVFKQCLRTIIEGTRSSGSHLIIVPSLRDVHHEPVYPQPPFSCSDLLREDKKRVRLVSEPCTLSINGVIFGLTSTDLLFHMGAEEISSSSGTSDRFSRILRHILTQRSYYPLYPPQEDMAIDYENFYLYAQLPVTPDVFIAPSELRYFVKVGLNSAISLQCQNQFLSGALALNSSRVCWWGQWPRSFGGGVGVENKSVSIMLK
T2 sequence (A0AAA9THK8 entry or part of it): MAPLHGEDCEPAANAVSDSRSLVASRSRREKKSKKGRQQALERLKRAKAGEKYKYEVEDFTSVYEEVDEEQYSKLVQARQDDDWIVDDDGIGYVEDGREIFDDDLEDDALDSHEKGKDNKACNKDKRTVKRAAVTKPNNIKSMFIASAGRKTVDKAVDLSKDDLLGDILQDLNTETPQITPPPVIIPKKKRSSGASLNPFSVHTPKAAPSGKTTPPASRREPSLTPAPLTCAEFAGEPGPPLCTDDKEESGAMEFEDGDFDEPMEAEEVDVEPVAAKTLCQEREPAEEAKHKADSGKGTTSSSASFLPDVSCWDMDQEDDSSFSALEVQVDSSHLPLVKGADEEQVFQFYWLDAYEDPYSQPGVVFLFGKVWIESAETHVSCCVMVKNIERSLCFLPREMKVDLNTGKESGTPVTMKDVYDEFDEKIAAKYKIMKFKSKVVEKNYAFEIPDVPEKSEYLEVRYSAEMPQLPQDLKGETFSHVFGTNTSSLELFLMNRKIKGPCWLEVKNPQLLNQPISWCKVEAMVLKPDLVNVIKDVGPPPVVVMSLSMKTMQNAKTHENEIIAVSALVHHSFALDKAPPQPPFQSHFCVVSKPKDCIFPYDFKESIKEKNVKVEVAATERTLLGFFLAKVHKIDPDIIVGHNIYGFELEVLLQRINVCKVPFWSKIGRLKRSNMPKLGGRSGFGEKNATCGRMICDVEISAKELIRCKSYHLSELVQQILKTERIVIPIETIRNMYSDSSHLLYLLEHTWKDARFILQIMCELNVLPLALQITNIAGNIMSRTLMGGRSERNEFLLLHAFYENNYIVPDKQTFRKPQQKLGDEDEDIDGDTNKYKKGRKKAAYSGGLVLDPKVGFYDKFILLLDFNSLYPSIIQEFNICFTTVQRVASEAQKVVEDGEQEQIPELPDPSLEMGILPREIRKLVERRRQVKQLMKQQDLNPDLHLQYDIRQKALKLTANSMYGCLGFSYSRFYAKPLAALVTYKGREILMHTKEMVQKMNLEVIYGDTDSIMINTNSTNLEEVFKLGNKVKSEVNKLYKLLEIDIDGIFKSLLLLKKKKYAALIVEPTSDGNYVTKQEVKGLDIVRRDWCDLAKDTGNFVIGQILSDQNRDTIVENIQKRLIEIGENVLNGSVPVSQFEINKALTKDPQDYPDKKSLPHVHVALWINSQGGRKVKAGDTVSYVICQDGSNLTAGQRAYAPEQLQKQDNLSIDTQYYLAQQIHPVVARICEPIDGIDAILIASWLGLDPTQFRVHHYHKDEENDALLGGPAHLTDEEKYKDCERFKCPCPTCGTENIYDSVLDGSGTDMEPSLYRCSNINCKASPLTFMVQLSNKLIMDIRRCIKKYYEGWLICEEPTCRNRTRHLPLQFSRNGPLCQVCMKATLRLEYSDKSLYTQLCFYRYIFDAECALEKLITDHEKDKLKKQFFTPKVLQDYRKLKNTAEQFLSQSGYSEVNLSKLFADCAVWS
T2 sequence (A0JNF4 entry or part of it, further chain): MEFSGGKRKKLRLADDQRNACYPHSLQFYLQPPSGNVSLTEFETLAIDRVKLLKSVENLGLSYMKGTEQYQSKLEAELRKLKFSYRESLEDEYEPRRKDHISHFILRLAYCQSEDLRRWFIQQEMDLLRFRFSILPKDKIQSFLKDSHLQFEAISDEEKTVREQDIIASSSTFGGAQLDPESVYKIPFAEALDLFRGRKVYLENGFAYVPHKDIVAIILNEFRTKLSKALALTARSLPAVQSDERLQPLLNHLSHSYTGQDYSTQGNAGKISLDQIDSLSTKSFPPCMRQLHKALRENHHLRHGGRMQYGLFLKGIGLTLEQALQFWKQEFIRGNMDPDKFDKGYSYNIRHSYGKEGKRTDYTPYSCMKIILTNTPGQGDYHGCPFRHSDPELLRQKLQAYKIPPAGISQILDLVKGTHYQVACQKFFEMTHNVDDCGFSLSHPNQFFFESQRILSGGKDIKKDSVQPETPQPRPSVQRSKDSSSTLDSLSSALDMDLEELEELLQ
T2 sequence (A0A3Q1MF00 entry or part of it, further chain): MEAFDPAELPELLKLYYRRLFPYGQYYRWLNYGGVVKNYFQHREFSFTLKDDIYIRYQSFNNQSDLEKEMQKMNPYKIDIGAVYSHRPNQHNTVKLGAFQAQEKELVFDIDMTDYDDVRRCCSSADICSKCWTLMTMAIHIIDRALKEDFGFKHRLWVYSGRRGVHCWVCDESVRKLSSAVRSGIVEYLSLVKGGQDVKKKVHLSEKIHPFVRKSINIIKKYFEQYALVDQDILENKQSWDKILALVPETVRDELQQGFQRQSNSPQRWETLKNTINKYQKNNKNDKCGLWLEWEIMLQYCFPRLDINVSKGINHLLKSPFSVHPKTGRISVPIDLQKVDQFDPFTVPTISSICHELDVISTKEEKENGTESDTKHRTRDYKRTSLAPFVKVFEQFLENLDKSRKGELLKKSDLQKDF

As to `CC1=CC[C@H]2C(C)(C)CCC[C@]2(C)[C@H]1CCCCCCCCC(=O)O` (relative stereo) [compound 9, (1S*,4aS*,8aS*)-9-(1,4,4a,5,6,7,8,8a-octahydro-2,5,5,8a-tetramethylnaphthalen-1-yl)nonanoic acid], in assay [1], the “Inhibitory effect on pol β compared with KA-A” value is “as strong as that of KA-A”. In assay [2] (10 and 100 μM of compound (Figure 2A)), the “Inhibitory effect on pol α compared with KA-A” value is “as strong as that of KA-A”.

For `CC1=CC[C@H]2C(C)(C)CCC[C@]2(C)[C@H]1CCCCCCCCCCCCC(=O)O` (relative stereo) [compound 10, (1S*,4aS*,8aS*)-13-(1,4,4a,5,6,7,8,8a-octahydro-2,5,5,8a-tetramethylnaphthalen-1-yl)tridecanoic acid], the “Growth inhibitory effect on HL-60 cells, rank among compounds tested” value in assay [3] is “third strongest”.

As for `CC1=CC[C@H]2C(C)(C)CCC[C@]2(C)[C@H]1CCCCCCCCCCCCCCCCCCCCC(=O)O` (relative stereo) [compound 12, (1S*,4aS*,8aS*)-21-(1,4,4a,5,6,7,8,8a-octahydro-2,5,5,8a-tetramethylnaphthalen-1-yl)henicosanoic acid], the “Growth inhibitory effect on HL-60 cells, rank among compounds tested” value in assay [3] was “second”.

With `C[C@@]1(CO)[C@H](O)CC[C@@]2(C)[C@H]1CC[C@H]1C[C@@H]3C[C@@]12CC[C@]3(O)CO` [aphidicolin, reference compound], the IC50 – broadly, the midpoint of a concentration-inhibition curve – in assay [2] stood at 40 µM.

For `CC(C)=CCC[C@@]1(C)CCC[C@]2(C)[C@@H](CC/C(C)=C/C(=O)O)C(C)=CC[C@@H]12` [compound 1, kohamaic acid A], the values for the IC50 in assay [4] and in assay [5] were 7.6 µM and 8.4 µM, respectively.

Turning to `CC[n+]1c(-c2ccccc2)c2cc(N)ccc2c2ccc(N)cc21` [ethidium bromide, reference compound], the “Thermal transition of Tm of dsDNA” value in assay [6] was “clear thermal transition”.

Values taken from PMC6253949, “The Inhibitory Action of Kohamaic Acid A Derivatives on Mammalian DNA Polymerase β” (Molecules, 2008).
